The AC50 is the concentration at which the activity in the assay is half-maximal. A high value points to weaker potency.

Structures are written as SMILES.

Results on 22 compounds are retold here after ChEMBL document CHEMBL5291721, “A preclinical secondary pharmacology resource illuminates target-adverse drug reaction associations of marketed drugs” (Nat Commun, 2023).

In assay [1] the target is T1, Alpha-2A adrenergic receptor (Homo sapiens, UniProt P08913).
T1 sequence (P08913 whole entry): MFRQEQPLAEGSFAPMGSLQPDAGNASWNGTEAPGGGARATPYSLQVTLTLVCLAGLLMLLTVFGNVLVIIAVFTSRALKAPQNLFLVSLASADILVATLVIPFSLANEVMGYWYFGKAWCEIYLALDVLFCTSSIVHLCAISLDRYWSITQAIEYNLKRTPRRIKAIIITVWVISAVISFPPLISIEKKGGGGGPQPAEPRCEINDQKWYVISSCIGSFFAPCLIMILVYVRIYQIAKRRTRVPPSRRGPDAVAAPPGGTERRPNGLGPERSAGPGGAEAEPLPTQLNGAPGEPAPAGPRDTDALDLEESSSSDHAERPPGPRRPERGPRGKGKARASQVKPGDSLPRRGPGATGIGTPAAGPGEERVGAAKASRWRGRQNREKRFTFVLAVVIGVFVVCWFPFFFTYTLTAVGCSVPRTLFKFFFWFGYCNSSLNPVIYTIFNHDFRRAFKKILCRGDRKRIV
The assay is classed as functional, cell-based.

Assay [2] addresses T2, 5-hydroxytryptamine receptor 1A (Homo sapiens, UniProt P08908).
T2 sequence (P08908 whole entry): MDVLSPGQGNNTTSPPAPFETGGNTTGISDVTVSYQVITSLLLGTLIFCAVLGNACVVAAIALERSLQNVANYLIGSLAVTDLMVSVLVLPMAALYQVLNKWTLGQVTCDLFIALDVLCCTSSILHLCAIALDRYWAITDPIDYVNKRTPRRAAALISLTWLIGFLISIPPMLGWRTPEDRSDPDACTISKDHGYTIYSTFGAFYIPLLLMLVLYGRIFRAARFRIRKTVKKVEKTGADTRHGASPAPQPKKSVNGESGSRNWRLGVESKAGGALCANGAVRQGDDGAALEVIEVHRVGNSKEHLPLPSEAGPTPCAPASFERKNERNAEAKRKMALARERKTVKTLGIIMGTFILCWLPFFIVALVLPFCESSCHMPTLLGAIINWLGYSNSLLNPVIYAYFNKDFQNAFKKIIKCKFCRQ
It is filed as functional, cell-based.

Assay [3] deals with Sodium-dependent dopamine transporter (Homo sapiens, UniProt Q01959).
Sequence of Sodium-dependent dopamine transporter (Q01959 whole entry): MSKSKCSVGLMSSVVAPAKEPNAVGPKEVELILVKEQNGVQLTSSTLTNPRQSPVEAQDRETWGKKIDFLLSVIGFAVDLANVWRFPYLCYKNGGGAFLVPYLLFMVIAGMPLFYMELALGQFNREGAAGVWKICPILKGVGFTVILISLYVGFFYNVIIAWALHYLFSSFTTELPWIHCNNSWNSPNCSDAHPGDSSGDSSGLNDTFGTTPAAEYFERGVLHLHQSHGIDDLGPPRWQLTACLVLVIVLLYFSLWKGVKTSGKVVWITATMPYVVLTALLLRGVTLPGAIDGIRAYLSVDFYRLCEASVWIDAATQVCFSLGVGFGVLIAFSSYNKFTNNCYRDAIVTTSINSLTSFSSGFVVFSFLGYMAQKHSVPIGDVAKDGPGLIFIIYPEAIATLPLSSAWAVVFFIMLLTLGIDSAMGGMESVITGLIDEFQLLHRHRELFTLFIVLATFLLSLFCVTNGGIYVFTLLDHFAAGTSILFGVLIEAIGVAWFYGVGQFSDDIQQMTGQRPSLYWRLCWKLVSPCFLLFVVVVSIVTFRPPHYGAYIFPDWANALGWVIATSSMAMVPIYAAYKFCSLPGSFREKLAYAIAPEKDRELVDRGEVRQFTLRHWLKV
The target of assay [4] is T3, Alpha-1A adrenergic receptor (Homo sapiens, UniProt P35348).
T3 sequence (P35348 whole entry): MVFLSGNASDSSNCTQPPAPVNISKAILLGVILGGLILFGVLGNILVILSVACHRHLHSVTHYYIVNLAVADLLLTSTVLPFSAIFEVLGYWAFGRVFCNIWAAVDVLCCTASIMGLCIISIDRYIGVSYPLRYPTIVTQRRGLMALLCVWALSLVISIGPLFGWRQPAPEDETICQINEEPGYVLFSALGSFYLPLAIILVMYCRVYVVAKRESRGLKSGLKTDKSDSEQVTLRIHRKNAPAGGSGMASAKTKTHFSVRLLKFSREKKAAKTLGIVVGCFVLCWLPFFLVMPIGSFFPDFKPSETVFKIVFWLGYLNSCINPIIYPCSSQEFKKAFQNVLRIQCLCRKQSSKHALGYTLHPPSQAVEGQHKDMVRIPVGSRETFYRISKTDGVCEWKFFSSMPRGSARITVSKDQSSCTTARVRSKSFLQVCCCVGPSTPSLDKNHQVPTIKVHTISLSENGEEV
The assay is classed as functional, cell-based.

Assay [5] addresses T4, Beta-2 adrenergic receptor (Homo sapiens, UniProt P07550). It is filed as functional, cell-based.
The target of assay [6] is Neuronal acetylcholine receptor subunit alpha-4 (Homo sapiens, UniProt P43681).
Sequence of Neuronal acetylcholine receptor subunit alpha-4 (P43681 whole entry): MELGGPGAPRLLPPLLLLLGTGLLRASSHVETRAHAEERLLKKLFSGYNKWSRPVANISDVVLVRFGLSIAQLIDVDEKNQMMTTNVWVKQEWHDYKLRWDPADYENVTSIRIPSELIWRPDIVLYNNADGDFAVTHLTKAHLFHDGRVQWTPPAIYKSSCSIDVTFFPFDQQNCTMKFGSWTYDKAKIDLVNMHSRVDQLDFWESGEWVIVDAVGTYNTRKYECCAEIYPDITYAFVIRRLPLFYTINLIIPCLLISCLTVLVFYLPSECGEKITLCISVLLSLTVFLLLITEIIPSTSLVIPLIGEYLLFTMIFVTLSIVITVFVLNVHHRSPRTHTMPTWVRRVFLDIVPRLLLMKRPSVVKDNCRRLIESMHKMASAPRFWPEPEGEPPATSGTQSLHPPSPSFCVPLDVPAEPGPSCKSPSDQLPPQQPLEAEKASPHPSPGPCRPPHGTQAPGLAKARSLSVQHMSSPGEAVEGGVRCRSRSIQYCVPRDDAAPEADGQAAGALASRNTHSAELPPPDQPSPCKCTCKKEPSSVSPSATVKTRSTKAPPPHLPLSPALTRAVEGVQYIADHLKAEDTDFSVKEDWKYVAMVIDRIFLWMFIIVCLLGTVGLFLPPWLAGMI
Assay [7] deals with T5, Alpha-2C adrenergic receptor (Homo sapiens, UniProt P18825).
T5 sequence (P18825 whole entry): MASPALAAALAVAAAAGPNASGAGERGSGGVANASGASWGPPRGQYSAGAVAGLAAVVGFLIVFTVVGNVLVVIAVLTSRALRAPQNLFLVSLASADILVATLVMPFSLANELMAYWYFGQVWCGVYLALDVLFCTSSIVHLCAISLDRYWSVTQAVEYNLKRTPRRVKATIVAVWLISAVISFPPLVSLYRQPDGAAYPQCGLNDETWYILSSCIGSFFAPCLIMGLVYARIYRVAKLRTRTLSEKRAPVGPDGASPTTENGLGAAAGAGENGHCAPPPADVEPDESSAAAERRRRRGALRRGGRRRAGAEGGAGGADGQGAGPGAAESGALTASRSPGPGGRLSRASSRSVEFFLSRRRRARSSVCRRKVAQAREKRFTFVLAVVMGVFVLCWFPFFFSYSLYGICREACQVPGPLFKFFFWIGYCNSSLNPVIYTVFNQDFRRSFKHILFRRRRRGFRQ
The assay is classed as functional.

In assay [8] the target is T4, Beta-2 adrenergic receptor.
Also: assay procedure not described here.

T4 sequence (P07550 whole entry): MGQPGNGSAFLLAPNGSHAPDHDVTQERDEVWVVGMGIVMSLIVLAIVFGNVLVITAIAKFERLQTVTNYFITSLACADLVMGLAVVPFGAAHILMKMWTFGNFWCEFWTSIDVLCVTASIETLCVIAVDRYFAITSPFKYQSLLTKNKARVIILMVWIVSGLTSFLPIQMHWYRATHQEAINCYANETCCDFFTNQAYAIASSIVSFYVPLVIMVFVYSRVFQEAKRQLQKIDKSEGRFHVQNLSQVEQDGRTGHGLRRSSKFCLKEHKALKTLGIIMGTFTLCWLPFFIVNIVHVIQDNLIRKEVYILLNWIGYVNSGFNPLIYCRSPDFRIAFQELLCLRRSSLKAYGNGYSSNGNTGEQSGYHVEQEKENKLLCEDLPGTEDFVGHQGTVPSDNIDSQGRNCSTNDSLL

As for `Cc1nnc(SCC2=C(C(=O)O)N3C(=O)[C@@H](NC(=O)Cn4cnnn4)[C@H]3SC2)s1` [CEFAZOLIN], the AC50 in assay [1], in assay [2], in assay [3], in assay [4], in assay [5] and in assay [6] was above 300 µM throughout. Further, the AC50 in assay [7] was above 300 µM.
Regarding `CC(C)C[C@H](NC(=O)[C@@H](O)[C@H](N)Cc1ccccc1)C(=O)O` [UBENIMEX], the AC50 in assay [1], in assay [2], in assay [3], in assay [4], in assay [5] and in assay [6] was above 30 µM throughout. Further, in assay [7], the AC50 is above 30 µM.
With `O=C1Cc2cc(CCN3CCN(c4nsc5ccccc45)CC3)c(Cl)cc2N1` [ZIPRASIDONE], the AC50 is 5.11 µM in assay [3]; above 30 µM in assay [4]; above 30 µM in assay [8]; above 30 µM in assay [5]; above 10 µM in assay [6].
Consider `CC=CC1=C(C(=O)O)N2C(=O)[C@@H](NC(=O)[C@H](N)c3ccc(O)cc3)[C@H]2SC1` [CEFPROZIL], for which the AC50 in assay [1], in assay [2], in assay [3], in assay [4], in assay [8] and in assay [6] was above 30 µM throughout. Also, the AC50 in assay [7] was above 30 µM.
For `CC1(C)S[C@@H]2[C@H](NC(=O)C(C(=O)O)c3ccccc3)C(=O)N2[C@H]1C(=O)O` (some centres not stated) [CARBENICILLIN], the AC50 in assay [1], in assay [2], in assay [3], in assay [4], in assay [5] and in assay [6] was above 30 µM each time. Also, in assay [7], the AC50 is above 30 µM.
For `Clc1ccc(Cn2c(CN3CCCC3)nc3ccccc32)cc1` [CLEMIZOLE], the AC50 in assay [1] was above 10 µM; in assay [2], above 30 µM; in assay [3], 24 µM; in assay [4] it was above 30 µM; in assay [5], above 30 µM; in assay [6] it was above 10 µM. In assay [7], this compound displayed an AC50 above 30 µM.
`CC(C)Cc1ccc([C@H](C)C(=O)O)cc1` [DEXIBUPROFEN]: the AC50 in assay [1], in assay [2], in assay [3], in assay [4], in assay [5] and in assay [6] was above 30 µM throughout. The AC50 in assay [7] is above 30 µM.
On to `CN(CCOc1ccc(CC2SC(=O)NC2=O)cc1)c1ccccn1` (configuration not stated) [ROSIGLITAZONE], for which the half-maximal activity concentration (AC50) in assay [1], in assay [3], in assay [4], in assay [8], in assay [6] and in assay [7] was above 30 µM each time.
As to `CC(C(=O)O)c1ccc2oc(-c3ccc(Cl)cc3)nc2c1` (configuration not stated) [BENOXAPROFEN], the AC50 in assay [1], in assay [2], in assay [3], in assay [4], in assay [8] and in assay [6] was above 30 µM in each case. Besides, in assay [7], the AC50 is above 30 µM.
`CNC[C@H](O)c1ccc(O)c(O)c1` [EPINEPHRINE]: the AC50 in assay [3] and in assay [6] was above 30 µM throughout.
Take `CC(=O)Nc1ccc(CC(=O)O)cc1` [ACTARIT]: the AC50 in assay [1], in assay [2], in assay [3], in assay [4], in assay [8] and in assay [6] was above 30 µM in each case. The compound further yielded a half-maximal activity concentration (AC50) in assay [7] above 30 µM.
Regarding `CCCCCCCN(CC)CCCC(O)c1ccc(NS(C)(=O)=O)cc1` (configuration not stated) [IBUTILIDE], the AC50 in assay [1] is above 30 µM; in assay [3] it was above 30 µM; in assay [4] it was above 30 µM; in assay [8], above 30 µM; in assay [6] it was above 30 µM; in assay [7], 3.2 µM.
Take `S=P(N1CC1)(N1CC1)N1CC1` [THIOTEPA]: the AC50 in assay [1] is above 30 µM; in assay [2], above 10 µM; in assay [3], 27 µM; in assay [4], above 30 µM; in assay [5] it was above 30 µM; in assay [6], above 30 µM. In assay [7], this compound gave an AC50 of 4.4 µM.
With `CNC(=C[N+](=O)[O-])NCCSCc1csc(CN(C)C)n1` [NIZATIDINE], the concentration at half-maximal activity (AC50) in assay [1], in assay [2], in assay [3], in assay [8], in assay [6] and in assay [7] was above 10 µM in each case.
Consider `CC[C@@H](CO)NC(=O)[C@@H]1C=C2c3cccc4c3c(cn4C)C[C@H]2N(C)C1` [METHYSERGIDE], for which the AC50 in assay [1] is above 10 µM; in assay [3], above 30 µM; in assay [4], 0.88 µM; in assay [8], above 10 µM; in assay [5] it was above 30 µM; in assay [6], above 10 µM. The compound also showed an AC50 in assay [7] of 3.5 µM.
Turning to `CC(C)(O/N=C(\C(=O)N[C@@H]1C(=O)N2C(C(=O)[O-])=C(C[n+]3ccccc3)CS[C@H]12)c1csc(N)n1)C(=O)O` [CEFTAZIDIME], the AC50 in assay [1], in assay [2], in assay [3], in assay [4], in assay [5] and in assay [6] was above 300 µM each time. In assay [7], the AC50 was above 300 µM.
For the compound `Cc1cc(C2CCCCC2)n(O)c(=O)c1` [CICLOPIROX], the AC50 in assay [3], in assay [4], in assay [6] and in assay [7] was above 30 µM throughout.
With `CCC(=O)O[C@]1(C(=O)CCl)[C@@H](C)C[C@H]2[C@@H]3CCC4=CC(=O)C=C[C@]4(C)[C@@]3(F)[C@@H](O)C[C@@]21C` [CLOBETASOL PROPIONATE], the AC50 in assay [1], in assay [3], in assay [4], in assay [5] and in assay [7] was above 30 µM in each case.
For the compound `COc1cc(C(=O)NS(=O)(=O)c2ccccc2C)ccc1Cc1cn(C)c2ccc(NC(=O)OC3CCCC3)cc12` [ZAFIRLUKAST], the AC50 in assay [3] was above 10 µM; in assay [4] it was above 30 µM; in assay [8], above 10 µM; in assay [6] it was above 10 µM.
`CN1Cc2c(N)cccc2C(c2ccccc2)C1` (configuration not stated) [NOMIFENSINE]: the AC50 in assay [1], in assay [4], in assay [5], in assay [6] and in assay [7] was above 30 µM in each case.
Take `CCCc1cc(=O)[nH]c(=S)[nH]1` [PROPYLTHIOURACIL]: the AC50 in assay [1], in assay [2], in assay [3], in assay [8], in assay [6] and in assay [7] was above 10 µM each time.
For the compound `Cn1cc(C(=O)[C@@H]2CCc3nc[nH]c3C2)c2ccccc21` [RAMOSETRON], the AC50 in assay [1] was above 30 µM; in assay [3], above 30 µM; in assay [4], above 30 µM; in assay [8], above 30 µM; in assay [6], above 30 µM; in assay [7], 11 µM.
